As a reminder, the melting point is the temperature of the solid-liquid transition.

The nature of one data set: Solubility in hexane. Type of data set: physicochemical. The procedure:
Next, 13.5 mg of 5,7,12,14-tetrakis(2-(triethylsilyl)ethyl)pentacene-6,13-dione was added to 51.6 mg of hexane at 22° C., and allowed to completely dissolve.
Next, 9.3 mg of a 1:1 mixture of 4,6,10,12-tetrakis(2-(triethylsilyl)ethyl)anthra[2,3-b : 6,7-b′]dithiophene-5,11-dione and 4,6,10,12-tetrakis(2-(triethylsilyl)ethyl)anthra[2,3-b:7,6-b′]dithiophene-5,11-dione was added to 180.1 mg of hexane at 26° C., and allowed to completely dissolve. The solubility in hexane was 5 wt %.

In the case of `CC[Si](CC)(CC)CCc1c2c(c(CC[Si](CC)(CC)CC)c3ccccc13)C(=O)c1c(c(CC[Si](CC)(CC)CC)c3ccccc3c1CC[Si](CC)(CC)CC)C2=O` [5,7,12,14-tetrakis(2-(triethylsilyl)ethyl)pentacene-6,13-dione], the melting point lay within 171 to 171.5 °C. This compound gave a solubility in hexane in the data set “Solubility in hexane” of 26 wt %.

These data come from patent US20120012822A1, “AROMATIC COMPOUND AND METHOD FOR PRODUCING SAME” (KEIO UNIVERSITY, priority 2009, published 2012).
